These results are taken from patent US20260184712A1, “Heterocyclic Compounds as ENT Inhibitors and Compounds for Use in the Treatment of Cancers” (iTeos Belgium SA, priority 2022, published 2026).

pIC50: −log10 of the molar value. Bounds are passed on as bounds.

In assay [1] the test system is stimulated primary human T cells. Kind of assay: T cell proliferation assay, Condition B (X-VIVO15, 2% HSA and 0.1% AAG). Particulars: Homo sapiens, T-cell, 96 h; Condition B: X-VIVO15 medium containing HSA and α1-Acid Glycoprotein; anti-CD3/anti-CD28 beads, ATP, 4 days; CFSE-lo T cells. The format is cell-based. The procedure:
The goal of this study was to determine the potency of ENT1 inhibitors by measuring the rescued proliferation of stimulated primary human T cells incubated in the presence of 100 uM Adenosine triphosphate (ATP), in baseline conditions (condition A) or in the presence of various proteins known to bind small molecules (condition B).
Condition B: X-VIVO15, 2% Human Serum Albumin (HSA) and 0.1% α-1-Acid Glycoprotein (AAG)
Venous blood from healthy volunteers, all of whom signed an informed consent approved by the Ethics Committee (FOR—UIC—BV-050-01-01 ICF_HBS_HD Version 5.0), was obtained by ImmuneHealth (Centre Hospitalier Universitaire Tivoli, La Louviere, Belgium). Mononuclear cells were collected by density gradient centrifugation, using SepMate-50 tubes (StemCell Technologies, Grenoble, France) and Lymphoprep (Stemcell Technologies) according to the manufacturer's instructions. CD3+ T cells were isolated by immunomagnetic negative selection, using the EasySep Human T Cell Isolation Kit (StemCell Technologies) as per the manufacturer's instructions. CD3+ T cells were stored in heat inactivated FBS (hiFBS; Gibco, ThermoFisher Scientific, Merelbeke, Belgium) and 10% DMSO in liquid nitrogen.
Purified human CD3+ T cells were thawed and washed once with RPMI1640 medium, UltraGlutamine (Lonza, Verviers, Belgium) containing 10% hiFBS. Cells were resuspended in PBS containing 10% hiFBS at 1×10^7 cells/ml. One volume of cells was combined with a matching volume of 2 μM CFSE solution in PBS, mixed well by pipetting, and incubated at room temperature for 5 minutes under rotation and protected from light. Excess CFSE was quenched by addition of PBS containing 10% hiFBS, and the cells were centrifuged (300×rcf, 7 minutes) and resuspended in X-VIVO15. Cells were again centrifuged and resuspended in X-VIVO15 for counting.
Cells were resuspended at 1.6×10^6 cells/mL in X-VIVO15 medium (Condition A) or X-VIVO15 medium containing 4% (v/v) HSA (Sigma-Aldrich, Diegem, Belgium) and 0.2% (v/v) ai-Acid Glycoprotein (Sigma-Aldrich, Diegem, Belgium) (Condition B).
[…] of cell suspension (2×10^4 cells) was added to wells of sterile flat-bottom 384-well plates. Cells were activated by adding […] of anti-CD3 anti-CD28 coated microbeads (Dynabeads human T-activator CD3/CD28; Life Technologies, Paisley, UK) suspended in X-VIVO15 medium or X-VIVO15 medium containing 4% (v/v) HSA and 0.2% (v/v) ai-Acid Glycoprotein at a ratio of one microbead per two cells. Serial dilutions of the ENT1 inhibitors were conducted in X-VIVO15 medium and […] of the diluent was added to the wells. Cells were mixed by pipetting up and down and pre-incubated for 30 minutes in a 37° C. humidified tissue culture incubator with 5% CO2. After pre-incubation, cells were cultured in the presence or absence of ATP (Sigma-Aldrich) at a final concentration of […]. The final well volume was 50 μl in all cases. Experiments were performed in biological duplicates. Cells were mixed by pipetting up and down and incubated for 4 days in a 37° C. humidified tissue culture incubator with 5% CO2.
Samples were run on a BD LSR Fortessa FACS machine (BD FACSDiva Software v9.0.1). Data were analyzed using FlowJo (BD, v10.7.1). T cell proliferation was determined by measuring the frequency of ‘CFSE^lo’ (i.e. CFSE-diluted).
T cell proliferation data were analyzed using FlowJo software (Version 10.6.2). Dead cells and cellular debris were excluded on the basis of forward and side scatter profile and singlet cells were selected for further analysis.
T cell proliferation was determined based on the percent CFSE^lo total T cells for each condition. The data were plotted on the y-axis against log molar (M) concentration of ENT1 inhibitors on the x-axis in GraphPad Prism (version 9.0.0). IC50 and IC90 values were generated with the ‘log(agonist) vs. response—Find ECanything(F))’ function with F constrained to 50 or 90, respectively. pICF values were generated by taking the −logECF values.

In the next assay the target is T1, human ENT1 (Homo sapiens, UniProt Q99808).
T1 construct: JAR cells expressing ENT1 were purchased from ATCC; host or cells: JAR cells
T1 sequence (Q99808 1-456): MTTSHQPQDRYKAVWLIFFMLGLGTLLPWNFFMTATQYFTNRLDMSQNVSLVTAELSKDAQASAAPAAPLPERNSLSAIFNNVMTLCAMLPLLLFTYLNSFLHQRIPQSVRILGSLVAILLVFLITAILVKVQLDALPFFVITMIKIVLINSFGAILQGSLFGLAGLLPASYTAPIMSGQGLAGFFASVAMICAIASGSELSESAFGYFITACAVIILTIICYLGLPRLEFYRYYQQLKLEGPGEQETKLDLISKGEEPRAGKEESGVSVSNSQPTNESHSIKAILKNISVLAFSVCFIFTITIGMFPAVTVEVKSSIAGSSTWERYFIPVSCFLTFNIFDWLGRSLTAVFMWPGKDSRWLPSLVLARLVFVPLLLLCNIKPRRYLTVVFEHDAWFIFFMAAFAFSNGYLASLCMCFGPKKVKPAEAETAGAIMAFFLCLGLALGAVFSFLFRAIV
Briefly: ENT1 binding assay (competition with Sahenta-DY647 on JAR cells). As to conditions: competition with SAHENTA-DY647 binding; IC50 categorized; read-out: Binding Assay IC50. The procedure, abridged: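 Whole-cell competition on JAR cells (native ENT1): 50,000 cells pre-incubated 30 min at 4 °C with compound in HBSS/10 mM Hepes/0.1% BSA, then 100 nM Sahenta-DY647 added for 30 min at 4 °C. After washing, fluorescence (Ex 630/Em 670 nm) read; IC50 from sigmoidal fit, averaged as pIC50.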

As to `COCCCNc1nc2c(OCc3ccc(OC(F)F)cc3)ncnc2n1[C@@H]1O[C@H](C)[C@@H](O)[C@H]1O` [Compound 46], the values for the pIC50 (in assay [1]; at human ENT1) were 6.30 to 7.70 and 7.70 to 9.00, respectively. For the compound `C[C@H]1O[C@@H](n2c(Nc3cnn(C)c3)nc3c(OCc4ccc(OC(F)F)cc4)ncnc32)[C@H](O)[C@@H]1O` [Compound 64], the figures for the pIC50 (in assay [1]; on human ENT1) were 6.30 to 7.70 and 7.70 to 9.00, respectively. Taken in the same sequence, the figures for `C[C@H]1O[C@@H](n2c(NCc3cnn(C)c3)nc3c(OCc4ccc(OC(F)F)cc4)ncnc32)[C@H](O)[C@@H]1O` [Compound 66] were 6.30 to 7.70 and 7.70 to 9.00. Take `Cc1nc(CNc2nc3c(OCc4ccc(C#N)cc4)ncnc3n2[C@@H]2O[C@H](C)[C@@H](O)[C@H]2O)no1` [Compound 68]: the pIC50 (as a rule, the IC50 on a negative log10 scale, so that one unit is a factor of ten) in assay [1] is 6.30 to 7.70; at human ENT1, 7.70 to 9.00. Regarding `C[C@H]1O[C@@H](n2c(NCc3ccc(C#N)nc3)nc3c(OCc4ccc(C#N)cc4)ncnc32)[C@H](O)[C@@H]1O` [Compound 70], the pIC50 in assay [1] is 6.30 to 7.70; at human ENT1 it was 7.70 to 9.00. Taken in the same sequence, the figures for `C[C@H]1O[C@@H](n2c(NC3CCCC3)nc3c(OCc4ccc(C#N)nc4)ncnc32)[C@H](O)[C@@H]1O` [Compound 74] were 6.30 to 7.70 and 7.70 to 9.00. Turning to `C[C@H]1O[C@@H](n2c(NC3CCOCC3)nc3c(OCc4ccc(C#N)nc4)ncnc32)[C@H](O)[C@@H]1O` [Compound 76], the pIC50 in assay [1] is 6.30 to 7.70; at human ENT1, 7.70 to 9.00. For the compound `C[C@H]1O[C@@H](n2c(N[C@H]3CCOC3)nc3c(OCc4ccc(C#N)cc4)ncnc32)[C@H](O)[C@@H]1O` [Compound 78], the pIC50 in assay [1] was 6.30 to 7.70; on human ENT1, 7.70 to 9.00. Taken in the same sequence, the figures for `CC(=O)N1CCC(Nc2nc3c(OCc4ccc(C#N)cc4)ncnc3n2[C@@H]2O[C@H](C)[C@@H](O)[C@H]2O)CC1` [Compound 80] were 7.70 to 9.00 and over 9.00. Turning to `C[C@H]1O[C@@H](n2c(NC3CCCC3)nc3c(OCc4ccc(OC(F)(F)F)nc4)ncnc32)[C@H](O)[C@@H]1O` [Compound 87], the pIC50 in assay [1] is 6.30 to 7.70; on human ENT1, 7.70 to 9.00.

Consider `C[C@H]1O[C@@H](n2c(NC3CCC(O)C3)nc3c(OCc4ccc(C(F)(F)F)cc4)ncnc32)[C@H](O)[C@@H]1O` (stereo partly drawn) [Compound 100], for which the pIC50 in assay [1] is 6.30 to 7.70; at human ENT1, 7.70 to 9.00. For the compound `Cc1cc(COc2ncnc3c2nc(NC2CCOCC2)n3[C@@H]2O[C@H](C)[C@@H](O)[C@H]2O)ccc1[N+](=O)[O-]` [Compound 103], the pIC50 in assay [1] is 6.30 to 7.70; on human ENT1, over 9.00. In the case of `C[C@H]1O[C@@H](n2c(NCC3CCC(F)(F)C3)nc3c(OCc4ccc(OC(F)F)nc4)ncnc32)[C@H](O)[C@@H]1O` (stereo partly drawn) [Compound 115], the pIC50 in assay [1] is under 6.30; on human ENT1, 7.70 to 9.00. As for `C[C@H]1O[C@@H](n2c(NCC3CCC(F)(F)CC3)nc3c(OCc4ccc(OC(F)F)nc4)ncnc32)[C@H](O)[C@@H]1O` [Compound 116], the values for the pIC50 (in assay [1]; at human ENT1) were 6.30 to 7.70 and 7.70 to 9.00, respectively. Taken in the same sequence, the figures for `C[C@H]1O[C@@H](n2c(N[C@H]3CC[C@](C)(O)CC3)nc3c(OCc4ccc(OC(F)F)cc4)ncnc32)[C@H](O)[C@@H]1O` [Compound 121] were 6.30 to 7.70 and 7.70 to 9.00.

Consider `O=[N+]([O-])c1ccc(COc2ncnc3c2ncn3[C@H]2C[C@H](O)[C@@H](CO)O2)cc1` [Compound 405], for which, on human ENT1, the pIC50 was under 6.30. On the same count and under the same terms, the figure for `C[C@H]1O[C@@H](n2cnc3c(C(=O)N(C)Cc4ccc([N+](=O)[O-])cc4)ncnc32)[C@H](O)[C@@H]1O` [Compound 406] is under 6.30; for `C[C@H]1O[C@@H](n2cnc3c(NS(=O)(=O)Cc4ccc([N+](=O)[O-])cc4)ncnc32)[C@H](O)[C@@H]1O` [Compound 407] it is under 6.30.

On to `C[C@H]1O[C@@H](n2cnc3c(OCCc4ccc([S+](C)[O-])cc4)ncnc32)[C@H](O)[C@@H]1O` (stereo partly drawn) [Compound 408], for which the pIC50 on human ENT1 is under 6.30. Turning to `C[C@H]1O[C@@H](n2cnc3c(SCc4ccc(C(=O)O)cc4)ncnc32)[C@H](O)[C@@H]1O` [Compound 409], the pIC50 at human ENT1 is under 6.30.

In the case of `C[C@H]1O[C@@H](n2cnc3c(SCc4ccc(C(=N)N)cc4)ncnc32)[C@H](O)[C@@H]1O` [Compound 410], the pIC50 at human ENT1 was under 6.30. On to `C[C@H]1O[C@@H](n2cnc3c(OCc4ccc([N+](=O)[O-])cc4)nccc32)[C@H](O)[C@@H]1O` [Compound 411], for which the pIC50 on human ENT1 was under 6.30. Same read-out and setting: the figure for `C[C@H]1O[C@@H](n2cnc3c(NC(=O)c4ccc([N+](=O)[O-])cc4)ncnc32)[C@H](O)[C@@H]1O` [Compound 412] is under 6.30. As for `C[C@H]1O[C@@H](n2cnc3c(=O)n(Cc4ccc([N+](=O)[O-])cc4)ccc32)[C@H](O)[C@@H]1O` [Compound 415], on human ENT1, the pIC50 is under 6.30. Still for that read-out and setting: the figure for `C[C@H]1O[C@@H](n2cnc3c(-n4cc(-c5ccc([N+](=O)[O-])cc5)nn4)ncnc32)[C@H](O)[C@@H]1O` [Compound 416] is under 6.30. On to `C[C@H]1O[C@@H](n2cnc3c(C(=O)NCc4ccccc4)ncnc32)[C@H](O)[C@@H]1O` [Compound 417], for which the pIC50 on human ENT1 was under 6.30.

`C[C@H]1O[C@@H](n2cnc3c(C(=O)N4CCC(c5ccc([N+](=O)[O-])cc5)CC4)ncnc32)[C@H](O)[C@@H]1O` [Compound 418]: the pIC50 on human ENT1 was under 6.30.

On to `C[C@H]1O[C@@H](n2cnc3c(C(=O)N4CCC(c5ccc([N+](=O)[O-])cc5)C4)ncnc32)[C@H](O)[C@@H]1O` (stereo partly drawn) [Compound 419], for which the negative-log IC50 (pIC50) on human ENT1 is under 6.30. Same read-out and setting: the figure for `C[C@H]1O[C@@H](n2cnc3c(-c4nc(-c5ccc([N+](=O)[O-])cc5)no4)ncnc32)[C@H](O)[C@@H]1O` [Compound 420] is under 6.30. As to `C[C@H]1O[C@@H](n2cnc3c(-c4noc(-c5ccc([N+](=O)[O-])cc5)n4)ncnc32)[C@H](O)[C@@H]1O` [Compound 421], at human ENT1, the pIC50 is under 6.30. Same read-out and setting: the figure for `C[C@H]1O[C@@H](n2cnc3c(C(=O)N4CCC4c4ccccc4)ncnc32)[C@H](O)[C@@H]1O` (stereo partly drawn) [Compound 422] is under 6.30. As to `C[C@H]1O[C@@H](n2c(NCC3COC3)nc3c(OCc4ccc(Cl)cc4)ncnc32)[C@H](O)[C@@H]1O` [Compound 423], the pIC50 on human ENT1 is under 6.30. In the case of `C[C@H]1O[C@@H](n2c(NCC3COC3)nc3c(OCc4ccc(OC(F)F)cc4)ncnc32)[C@H](O)[C@@H]1O` [Compound 424], at human ENT1, the pIC50 was under 6.30.
